Data from the NIST ThermoML archive (doi:10.1016/j.fluid.2014.11.026).
“And” between values parts separate entries of the source, which are not always exact repeats. Identical values can stand only once.

Conditions: Closed cell (Static) method

C=CC(C)(O)CCC=C(C)C (stereo not drawn) [3,7-dimethyl-1,6-octadien-3-ol]
Liquid
Conditions	vapor or sublimation pressure
284.62 K	0.006422 kPa
286.91 K	0.008001 kPa
289.26 K	0.01007 kPa
291.61 K	0.01262 kPa
294.02 K	0.01583 kPa
296.39 K	0.01969 kPa and 0.01967 kPa
298.77 K	0.0242 kPa
301.14 K	0.02977 kPa
301.2 K	0.02999 kPa
303.59 K	0.03677 kPa
305.95 K	0.04473 kPa
305.99 K	0.04494 kPa
308.38 K	0.05475 kPa
310.74 K	0.0661 kPa
310.78 K	0.06649 kPa
313.18 K	0.08076 kPa
316.23 K	0.1024 kPa
321.01 K	0.1464 kPa
325.83 K	0.2062 kPa
330.68 K	0.2877 kPa
335.48 K	0.394 kPa
340.29 K	0.5345 kPa
342.71 K	0.6231 kPa
345.69 K	0.7489 kPa
348.12 K	0.8693 kPa
350.51 K	0.9921 kPa
352.9 K	1.136 kPa

CCCCC(=O)CCCC [5-nonanone]
Liquid
Conditions	vapor or sublimation pressure [kPa]
283.83 K	0.02528
283.85 K	0.02535
286.19 K	0.03083
288.55 K	0.03722
290.9 K	0.04494
293.32 K	0.05439
293.35 K	0.0544
295.75 K	0.06539
298.1 K	0.07793
298.12 K	0.0783
300.56 K	0.09349
302.92 K	0.1107
302.94 K	0.111
305.38 K	0.1321
307.75 K	0.1553
307.77 K	0.1559
310.19 K	0.1839
312.99 K	0.2228
313.02 K	0.2225
315 K	0.2527
315.38 K	0.2591
317.8 K	0.3037
317.81 K	0.3041
320.16 K	0.3527
320.18 K	0.3545
322.58 K	0.4099
322.62 K	0.4118
324.99 K	0.476
325.05 K	0.4746
327.44 K	0.5474
327.49 K	0.5494
329.9 K	0.6318
329.95 K	0.638
332.32 K	0.7257
332.35 K	0.7296
334.71 K	0.8311
334.74 K	0.8375
337.13 K	0.9562
337.15 K	0.9511

CC(=O)CCC=C(C)C [6-methyl-5-hepten-2-one]
Liquid
Conditions	vapor or sublimation pressure
283.85 K	0.05465 kPa
283.86 K	0.05482 kPa and 0.05462 kPa
283.92 K	0.05498 kPa
286.18 K	0.06551 kPa
286.23 K	0.06608 kPa
286.24 K	0.06599 kPa
288.57 K	0.07931 kPa
288.59 K	0.07922 kPa
288.61 K	0.07945 kPa
288.69 K	0.07994 kPa
290.97 K	0.09477 kPa
291 K	0.09535 kPa
291.02 K	0.09517 kPa
293.47 K	0.1142 kPa
293.49 K	0.1148 kPa
295.81 K	0.1358 kPa
295.85 K	0.1362 kPa
295.88 K	0.1365 kPa
298.28 K	0.1619 kPa
298.31 K	0.1623 kPa
300.61 K	0.1903 kPa
300.65 K	0.1915 kPa
300.69 K	0.1919 kPa
303.12 K	0.2264 kPa
303.15 K	0.2273 kPa
305.45 K	0.2654 kPa
305.48 K	0.2664 kPa
305.54 K	0.2673 kPa
307.99 K	0.3137 kPa
308.02 K	0.3147 kPa
310.3 K	0.3637 kPa
310.36 K	0.3668 kPa
310.42 K	0.3665 kPa
312.88 K	0.4306 kPa
312.9 K	0.4306 kPa
315.16 K	0.4939 kPa
315.23 K	0.4983 kPa
315.28 K	0.4979 kPa
317.72 K	0.5789 kPa
317.75 K	0.5801 kPa
320.01 K	0.6665 kPa
320.07 K	0.6684 kPa
320.13 K	0.6684 kPa
322.5 K	0.769 kPa
322.52 K	0.7718 kPa
322.56 K	0.7724 kPa
324.84 K	0.8831 kPa
324.89 K	0.8852 kPa
324.93 K	0.8864 kPa
327.28 K	1.015 kPa
327.32 K	1.015 kPa
327.36 K	1.016 kPa

O=C(O)c1ccccc1 [benzoic acid]
Crystal
Conditions	vapor or sublimation pressure [kPa]
297.67 K	0.000108
299.96 K	0.000142
300.03 K	0.000143
302.51 K	0.000193
304.75 K	0.00025
307.27 K	0.000335
309.63 K	0.000436
312.08 K	0.000573
314.4 K	0.000738
314.59 K	0.000754
316.91 K	0.000969
319.48 K	0.00127
321.91 K	0.001641
324.39 K	0.002118
326.76 K	0.002676
329.2 K	0.003432
331.62 K	0.004361
334.07 K	0.005542
336.46 K	0.006934
338.98 K	0.008733

O=C(c1ccccc1)c1ccccc1 [benzophenone]
Conditions	vapor or sublimation pressure [kPa]
300.37 K, Crystal	0.000119
302.88 K, Crystal	0.000161
302.91 K, Liquid	0.000237
305.39 K, Crystal	0.00022
305.41 K, Liquid	0.000306
307.9 K, Crystal	0.000302
307.91 K, Liquid	0.000394
310.26 K, Crystal	0.000401
310.41 K, Liquid	0.000503
312.75 K, Crystal	0.000535
315.24 K, Crystal	0.000708
317.73 K, Crystal	0.000939
318.01 K, Liquid	0.001028
320.23 K, Crystal	0.001239
320.51 K, Liquid	0.001288
323.09 K, Liquid	0.001615
325.59 K, Liquid	0.002005
328.11 K, Liquid	0.002469
330.61 K, Liquid	0.003064
333.13 K, Liquid	0.003771
335.64 K, Liquid	0.00461
338.16 K, Liquid	0.005616
340.68 K, Liquid	0.006814
343.21 K, Liquid	0.008284
345.73 K, Liquid	0.009949
348.24 K, Liquid	0.01196
350.76 K, Liquid	0.01435
353.28 K, Liquid	0.01704
355.79 K, Liquid	0.02035
358.31 K, Liquid	0.02415
360.82 K, Liquid	0.02859
363.34 K, Liquid	0.03356
368.37 K, Liquid	0.04652
370.89 K, Liquid	0.0543

[CH]1C=CC=C1.[CH]1C=CC=C1.[Fe] [ferrocene]
Crystal
Conditions	vapor or sublimation pressure [kPa]
280.91 K	0.000154
282.03 K	0.000176
283.33 K	0.000202
284.44 K	0.000229
285.74 K	0.000264
286.87 K	0.000298
288.14 K	0.000344
289.31 K	0.000388
290.59 K	0.000447
291.71 K	0.000501
293.03 K	0.000576
294.12 K	0.000646
295.42 K	0.000741
296.52 K	0.000829
297.8 K	0.000942
297.83 K	0.000947
300.23 K	0.001197
300.35 K	0.001218
302.84 K	0.001542
304.06 K	0.001742
304.13 K	0.001753
305.54 K	0.002007
307.9 K	0.002499
311.31 K	0.003428
312.99 K	0.00399
315.35 K	0.004949
316.48 K	0.005493
317.93 K	0.006236
319.06 K	0.006868
320.29 K	0.007672
320.95 K	0.008091
321.69 K	0.008661
322.63 K	0.00937
324 K	0.01056
325.29 K	0.01176
325.31 K	0.0117
327.79 K	0.01447
330.22 K	0.01764
331.21 K	0.01908
332.72 K	0.0215
335.15 K	0.02616
336.4 K	0.02867
337.89 K	0.03234
340.33 K	0.03875
341.35 K	0.04176
342.83 K	0.04685
345.27 K	0.05631
346.28 K	0.06042
347.77 K	0.06739
350.23 K	0.08052
351.2 K	0.08649
352.7 K	0.09579
355.17 K	0.1142
357.88 K	0.1377
360.37 K	0.1622
362.8 K	0.1914
365.3 K	0.2244
367.75 K	0.2639
370.2 K	0.3093
372.93 K	0.3682
375.4 K	0.425
377.87 K	0.4978
380.32 K	0.5748
382.8 K	0.6695
385.27 K	0.7725
387.75 K	0.8978
390.22 K	1.03
392.69 K	1.185

c1ccc2ccccc2c1 [naphthalene]
Crystal
Conditions	vapor or sublimation pressure [kPa]
297.72 K	0.01042
300.06 K	0.0131
302.47 K	0.01651
304.88 K	0.02077
307.27 K	0.02598
309.69 K	0.03247
312.35 K	0.04107
314.78 K	0.05102
317.21 K	0.06281
319.66 K	0.0774
322.08 K	0.0949
324.51 K	0.1161
326.97 K	0.1415
